Reference: US8192962B2, “Processes for detecting toxic substances” (Daikin Industries, Ltd., priority 2001, dated 2012)

Tested on: Mitochondria-located protein genes
Assay: DNA chip mRNA expression in yeast, mitochondria-located protein genes (Table 2)
Assay type: cell-based, Saccharomyces cerevisiae S288C
Conditions: cells incubated two hours with the chemical substance
Description: Yeast (Saccharomyces cerevisiae S288C (α SUC2mal mel gap2 CUP1)) were incubated at 25° C. on YPD medium (yeast extract 1%, polypepton 2%, glucose 2%). One of toxic chemical substances was added to the cells at logarithmic growth phase, and the cells were further incubated for two hours. Cells were cultured without any chemical substance in the same condition, and were used as control. Concentrations of the chemical substances were defined to inhibit the growth of the yeast but not lead to death.
After completion of the incubation, the culture was centrifuged to collect the cells. To the cells, sodium acetate buffer (50 mM sodium acetate, 10 mM EDTA, 1% SDS) was added, and the mixture was shaken at 65° C. for five minutes, followed by returning to room temperature, and obtaining the supernatant, of which the procedures were repeated two times. To the supernatant, ½ amount of a solution of phenol/chloroform was added, and the mixture was centrifuged to give a supernatant, which was added with an equal amount of chloroform, and the mixture was centrifuged to give a supernatant. To the supernatant, an equal amount of isopropanol containing 0.3 M sodium acetate was added, and the mixture was allowed to stand at room temperature for 30 minutes, after which the mixture was centrifuged to give a sediment of the whole RNAs. Seventy % ethanol was added to the sediment, and the mixture was again centrifuged to give a sediment, which was then dried and dissolved in water. mRNA was isolated from the whole RNAs as followings. In view of the fact that a poly A chain is attached to the 3′ terminus of mRNA, a polynucleotide having a poly T structure which was immobilized on the surface of latex beads was used to trap the mRNA, and then the mRNA was washed and eluted with spine column (Oligotex-dT30<Super>mRNA Purification Kit, Takara). Reverse transcription of the mRNA was conducted with a reverse transcriptase (Super Script II Reverse Transcriptase; catalogue No. 18064-014, GibcoBRL) using fluorescence-labeled nucleotides to give cDNAs that were introduced with Cy3-dUTP or Cy5-dUTP during the reverse transcription.
The labeled cDNAs were dissolved in TE buffer (10mM Tris-HCl/1 mM EDTA, pH8.0), and the solution was dropped on the DNA chip containing the whole genes of yeast (DNA Chip Research Inc. Japan) so that the cDNAs were hybridized on the DNA chip at 65° C. for over 12 hours. The fluoresces intensity of the DNA chip was read with a scanner, and the ratio relative to the fluorescence intensity resulting from the absence of chemical substance was estimated as the following, which is shown in Tables 1 to 9: […]

## Na2As [(1)]
Yeast gene YJR121W
  The level of expressed mRNA in the presence of chemical substance/The level of expressed mRNA in the absence of chemical substance: 0.9
Yeast gene YKL003C
  The level of expressed mRNA in the presence of chemical substance/The level of expressed mRNA in the absence of chemical substance: 1.1
Yeast gene YKL016C
  The level of expressed mRNA in the presence of chemical substance/The level of expressed mRNA in the absence of chemical substance: 1.5
Yeast gene YKL141W
  The level of expressed mRNA in the presence of chemical substance/The level of expressed mRNA in the absence of chemical substance: 1.6
Yeast gene YKL142W
  The level of expressed mRNA in the presence of chemical substance/The level of expressed mRNA in the absence of chemical substance: 1.8
Yeast gene YKL148C
  The level of expressed mRNA in the presence of chemical substance/The level of expressed mRNA in the absence of chemical substance: 0.9
Yeast gene YKL170W
  The level of expressed mRNA in the presence of chemical substance/The level of expressed mRNA in the absence of chemical substance: 1.0
Yeast gene YKL194C
  The level of expressed mRNA in the presence of chemical substance/The level of expressed mRNA in the absence of chemical substance: 0.9
Yeast gene YKR066C
  The level of expressed mRNA in the presence of chemical substance/The level of expressed mRNA in the absence of chemical substance: 0.9
Yeast gene YLL041C
  The level of expressed mRNA in the presence of chemical substance/The level of expressed mRNA in the absence of chemical substance: 1.1
Yeast gene YLR038C
  The level of expressed mRNA in the presence of chemical substance/The level of expressed mRNA in the absence of chemical substance: 2.3
Yeast gene YLR259C
  The level of expressed mRNA in the presence of chemical substance/The level of expressed mRNA in the absence of chemical substance: 0.7
Yeast gene YLR295C
  The level of expressed mRNA in the presence of chemical substance/The level of expressed mRNA in the absence of chemical substance: 1.4
Yeast gene YLR304C
  The level of expressed mRNA in the presence of chemical substance/The level of expressed mRNA in the absence of chemical substance: 0.7
Yeast gene YLR348C
  The level of expressed mRNA in the presence of chemical substance/The level of expressed mRNA in the absence of chemical substance: 1.1
Yeast gene YLR395C
  The level of expressed mRNA in the presence of chemical substance/The level of expressed mRNA in the absence of chemical substance: 1.8
Yeast gene YML054C
  The level of expressed mRNA in the presence of chemical substance/The level of expressed mRNA in the absence of chemical substance: 1.5
Yeast gene YML120C
  The level of expressed mRNA in the presence of chemical substance/The level of expressed mRNA in the absence of chemical substance: 1.1
Yeast gene YML129C
  The level of expressed mRNA in the presence of chemical substance/The level of expressed mRNA in the absence of chemical substance: 1.1
Yeast gene YMR023C
  The level of expressed mRNA in the presence of chemical substance/The level of expressed mRNA in the absence of chemical substance: 1.4
Yeast gene YMR035W
  The level of expressed mRNA in the presence of chemical substance/The level of expressed mRNA in the absence of chemical substance: 1.2
Yeast gene YMR083W
  The level of expressed mRNA in the presence of chemical substance/The level of expressed mRNA in the absence of chemical substance: 1.4
Yeast gene YMR089C
  The level of expressed mRNA in the presence of chemical substance/The level of expressed mRNA in the absence of chemical substance: 0.8
Yeast gene YMR152W
  The level of expressed mRNA in the presence of chemical substance/The level of expressed mRNA in the absence of chemical substance: 0.9
Yeast gene YMR203W
  The level of expressed mRNA in the presence of chemical substance/The level of expressed mRNA in the absence of chemical substance: 0.8
Yeast gene YMR267W
  The level of expressed mRNA in the presence of chemical substance/The level of expressed mRNA in the absence of chemical substance: 0.8
Yeast gene YNL055C
  The level of expressed mRNA in the presence of chemical substance/The level of expressed mRNA in the absence of chemical substance: 1.1
Yeast gene YNL071W
  The level of expressed mRNA in the presence of chemical substance/The level of expressed mRNA in the absence of chemical substance: 0.9
Yeast gene YNL073W
  The level of expressed mRNA in the presence of chemical substance/The level of expressed mRNA in the absence of chemical substance: 0.8
Yeast gene YNL104C
  The level of expressed mRNA in the presence of chemical substance/The level of expressed mRNA in the absence of chemical substance: 1.1
Yeast gene YNL256W
  The level of expressed mRNA in the presence of chemical substance/The level of expressed mRNA in the absence of chemical substance: 0.7
Yeast gene YOL096C
  The level of expressed mRNA in the presence of chemical substance/The level of expressed mRNA in the absence of chemical substance: 1.1
Yeast gene YOR020C
  The level of expressed mRNA in the presence of chemical substance/The level of expressed mRNA in the absence of chemical substance: 1.4
Yeast gene YOR037W
  The level of expressed mRNA in the presence of chemical substance/The level of expressed mRNA in the absence of chemical substance: 1.0
Yeast gene YOR100C
  The level of expressed mRNA in the presence of chemical substance/The level of expressed mRNA in the absence of chemical substance: 1.3
Yeast gene YOR130C
  The level of expressed mRNA in the presence of chemical substance/The level of expressed mRNA in the absence of chemical substance: 0.8
Yeast gene YOR142W
  The level of expressed mRNA in the presence of chemical substance/The level of expressed mRNA in the absence of chemical substance: 1.0
Yeast gene YOR150W
  The level of expressed mRNA in the presence of chemical substance/The level of expressed mRNA in the absence of chemical substance: 1.7
Yeast gene YOR176W
  The level of expressed mRNA in the presence of chemical substance/The level of expressed mRNA in the absence of chemical substance: 0.7
Yeast gene YOR187W
  The level of expressed mRNA in the presence of chemical substance/The level of expressed mRNA in the absence of chemical substance: 1.0
Yeast gene YOR316C
  The level of expressed mRNA in the presence of chemical substance/The level of expressed mRNA in the absence of chemical substance: 0.7
Yeast gene YPL040C
  The level of expressed mRNA in the presence of chemical substance/The level of expressed mRNA in the absence of chemical substance: 1.1
Yeast gene YPL134C
  The level of expressed mRNA in the presence of chemical substance/The level of expressed mRNA in the absence of chemical substance: 1.5
Yeast gene YPL135W
  The level of expressed mRNA in the presence of chemical substance/The level of expressed mRNA in the absence of chemical substance: 0.9
Yeast gene YPL215W
  The level of expressed mRNA in the presence of chemical substance/The level of expressed mRNA in the absence of chemical substance: 1.1
Yeast gene YPL262W
  The level of expressed mRNA in the presence of chemical substance/The level of expressed mRNA in the absence of chemical substance: 1.0
Yeast gene YPR024W
  The level of expressed mRNA in the presence of chemical substance/The level of expressed mRNA in the absence of chemical substance: 0.7
Yeast gene YPR037C
  The level of expressed mRNA in the presence of chemical substance/The level of expressed mRNA in the absence of chemical substance: 1.2
Yeast gene YPR047W
  The level of expressed mRNA in the presence of chemical substance/The level of expressed mRNA in the absence of chemical substance: 1.0
Yeast gene YPR134W
  The level of expressed mRNA in the presence of chemical substance/The level of expressed mRNA in the absence of chemical substance: 1.1
